In the supplement of paper PMC11208160:

Experiment: recombinant barcode read abundance after kanamycin selection (control-corrected) (log10(CPM+1)); higher = more efficient recombination; sequences stand for … in AGTGCAGAGAAAATCGGCCAGTTTTCTCTGCCTGCAGTCCGCATGCCGT…AGATTTATGCAGCGGACTGCCTTTCTCCCAAAGTGATAAACCGGACAGTATCATGGACCGGTTTTCCCGGTAATCCGTATTTGCAAGGTTGGTTTCACT; site = the 11-nt target
Summary of the method: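 Oligos holding a promoter, target, barcode and the J23119-driven first 104 bases of the bridge RNA were Gibson-cloned into a vector that supplied the other 73 bp plus a T7-inducible recombinase. This library was co-electroporated with a donor plasmid into E. coli. Two replicates went on chloramphenicol/ampicillin LB agar (control) and two on chloramphenicol/ampicillin/kanamycin with 0.1 mM IPTG. Recombination efficiency is read from averaged, control-corrected barcode counts per million at recombinant junctions, reported as log10(CPM+1).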
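Also: IS621 recombinase and bridge RNA in Escherichia coli cells.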

Sequence | recombinant barcode read abundance (log10)
CCGTAAGCTTGGGTTCTAACCTGTTGCCT (site CCGTAAACTAG) | 0.139
TACGGTCCTTGGGTTCTAACCTGTTGCTT (site TACGGTCCTAA) | 1.08
ACGAGAGCTTGGGTTCTAACCTGTTGCCT (site ACGAGAGCTAG) | 1.11
CTACGTCCTTGGGTTCTAACCTGTTGCTA (site CTACGTCCTGA) | 0.425
GGCAAGGCTTGGGTTCTAACCTGTTGCCT (site ACGGGTCCTCT) | 0.417
AATAGGCCTTGGGTTCTAACCTGTTGCGT (site AATAGGCCTAC) | 1.6
CATCCTACTTGGGTTCTAACCTGTTGCAT (site CATCCTACTAT) | 0.665
CGTCAACCTTGGGTTCTAACCTGTTGCCT (site CGTCAGCCTAG) | 0.177
CTTCGAACTTGGGTTCTAACCTGTTGCAT (site CTTCGAACTAT) | 0.407
CGCCGTACTTGGGTTCTAACCTGTTGCCT (site CGACGTACTAG) | 0.264
GCTTCGTCTTGGGTTCTAACCTGTTGCCT (site GCATCGTCTAG) | 0.427
TGGTATCCTTGGGTTCTAACCTGTTGCCT (site TGGTATCCTAG) | 0.954
CGCTAGACTTGGGTTCTAACCTGTTGCCT (site CGCTCGACTAG) | 0.0159
CTACGTCCTTGGGTTCTAACCTGTTGCTA (site CTACGTCCTCA) | 0.0856
CAGAGTCCTTGGGTTCTAACCTGTTGCCT (site CAGAGTCCTAT) | 0.3
TCTAGACCTTGGGTTCTAACCTGTTGCCA (site TCTAGTCCTAG) | 0.564
GTAAGTGCTTGGGTTCTAACCTGTTGCCT (site GTAAATGCTAG) | 0.0588
GGTGCTCCTTGGGTTCTAACCTGTTGCTT (site GGTGCTCCTAA) | 0.0711
ATGAGGACTTGGGTTCTAACCTGTTGCCT (site TTGAGGACTAG) | 0.246
TAACAGTCTTGGGTTCTAACCTGTTGCGT (site TAACCGTCTAT) | 0.246
CTAAGGACTTGGGTTCTAACCTGTTGCTT (site CTAAGGGCTCA) | 0.124
TAGAGCTCTTGGGTTCTAACCTGTTGCTG (site TAGTGCTCTGA) | 0.0075

Sequence | recombinant barcode read abundance (log10)
TCGTTTCCTTGGGTTCTAACCTGTTGCAT (site AGCCAGGCTCC) | 0.0113
GTGTGAGCTTGGGTTCTAACCTGTTGCCG (site GTACGAGCTCG) | 0.269
ACCTGGCCTTGGGTTCTAACCTGTTGCCT (site ACCTGCCCTAG) | 0.147
CATCAGCCTTGGGTTCTAACCTGTTGCCT (site CATGAGCCTAG) | 0.306
CCAGGACCTTGGGTTCTAACCTGTTGCCT (site CCAGGACCTAG) | 2.2
GGTCATACTTGGGTTCTAACCTGTTGCCT (site GGTCATACTAG) | 0.455
TAACGGCCTTGGGTTCTAACCTGTTGCCT (site TAACGGCCTAG) | 0.539
CTCTAGTCTTGGGTTCTAACCTGTTGCAT (site CTCTAGTCTAA) | 0.545
TCCCATCCTTGGGTTCTAACCTGTTGCCT (site TCCCATACTAG) | 0.0689
CACTACCCTTGGGTTCTAACCTGTTGCTT (site AGGCCGTCTCC) | 0.0811
TGGCATCCTTGGGTTCTAACCTGTTGCGT (site AACAGGGCTCG) | 0.0723
GACTCATCTTGGGTTCTAACCTGTTGCGG (site GACTCATCTCC) | 0.151
GTGTGTCCTTGGGTTCTAACCTGTTGCCT (site GTGTGTTCTAG) | 0.108
AGGAGCCCTTGGGTTCTAACCTGTTGCTC (site AGGAGCCCTCA) | 0.152
TGGGTCCCTTGGGTTCTAACCTGTTGCGA (site TGGGTCCCTTC) | 3
AAGGGGTCTTGGGTTCTAACCTGTTGCTT (site ATGGGGTCTAA) | 0.898
CTACTTCCTTGGGTTCTAACCTGTTGCGT (site CTACTTCCTAC) | 1.69
CGTCGGGCTTGGGTTCTAACCTGTTGCAG (site CGTCGGGCTCT) | 1.38
TCTACATCTTGGGTTCTAACCTGTTGCCT (site TCTACTTCTAG) | 0.0355
TTGACTGCTTGGGTTCTAACCTGTTGCCT (site TTGACTGCTAG) | 0.812
ACTTCAACTTGGGTTCTAACCTGTTGCCT (site ACGTCAACTAG) | 0.161
GTTCCGGCTTGGGTTCTAACCTGTTGCCT (site GTTGCGGCTAG) | 0.145

Sequence | recombinant barcode read abundance (log10)
AACCACTCTTGGGTTCTAACCTGTTGCCT (site AACCACTCTAG) | 2.42
CAGCCGTCTTGGGTTCTAACCTGTTGCGG (site CAGCCGTCTCC) | 1.09
CATTTCTCTTGGGTTCTAACCTGTTGCCT (site GATTTCTCTAG) | 0.116
ACCTTACCTTGGGTTCTAACCTGTTGCGG (site ACCTTACCTAC) | 0.37
ACCCTGGCTTGGGTTCTAACCTGTTGCCT (site ACACTGGCTAG) | 0.0738
AAGCGAACTTGGGTTCTAACCTGTTGCCT (site AAGCTAACTAG) | 0.319
GTCCACTCTTGGGTTCTAACCTGTTGCAC (site GTCCACTCTGT) | 2.21
CGGAAATCTTGGGTTCTAACCTGTTGCCT (site CGCAAATCTAG) | 0.0224
TCTAAGTCTTGGGTTCTAACCTGTTGCCA (site TCTAAGTCTCG) | 0.144
CGCTCGACTTGGGTTCTAACCTGTTGCCT (site CGCTTGACTAG) | 0.0207
CTGATGTCTTGGGTTCTAACCTGTTGCCA (site CTGATGTCTTG) | 0.456
GGTTGAACTTGGGTTCTAACCTGTTGCAT (site GCTTGAACTAA) | 0.128
CTAGTTACTTGGGTTCTAACCTGTTGCCT (site CTATTTACTAG) | 0.177
ACAGTGACTTGGGTTCTAACCTGTTGCCT (site ACAGTGACTAG) | 2.49
CACTTCCCTTGGGTTCTAACCTGTTGCCT (site CACTTCCCTAC) | 0.0709
TTCTGTTCTTGGGTTCTAACCTGTTGCCT (site TTCTCTTCTAG) | 0.0281
TAGGATACTTGGGTTCTAACCTGTTGCAT (site TAGGATACTCT) | 0.583
GTGCTTACTTGGGTTCTAACCTGTTGCCT (site GGGCTTACTAG) | 0.0436
ACTGTGACTTGGGTTCTAACCTGTTGCCT (site ACTGTCACTAG) | 0.317
ATAGAGTCTTGGGTTCTAACCTGTTGCTT (site AGAGAGTCTAA) | 0.352
GTTCCGGCTTGGGTTCTAACCTGTTGCCT (site GTTTCGGCTAG) | 0.373
GAGTTCACTTGGGTTCTAACCTGTTGCAG (site AGTCGTTCTAG) | 0.141

Sequence | recombinant barcode read abundance (log10)
GGTAGATCTTGGGTTCTAACCTGTTGCTT (site GGTAGGCCTAA) | 0.0553
CGAATGTCTTGGGTTCTAACCTGTTGCGT (site CGACTGCCTAC) | 0.0251
ATAGGACCTTGGGTTCTAACCTGTTGCCG (site ATAGGACCTCG) | 2.36
CTTCGGGCTTGGGTTCTAACCTGTTGCAG (site CATCGGGCTCT) | 1.25
GCGATCCCTTGGGTTCTAACCTGTTGCTT (site GCGATCCCTAA) | 0.798
TCCGGTACTTGGGTTCTAACCTGTTGCTT (site TCCGGTACTAA) | 0.438
CACCTGTCTTGGGTTCTAACCTGTTGCCG (site CACCTGACTCG) | 0.151
TCGGATGCTTGGGTTCTAACCTGTTGCTT (site TCGAATGCTAG) | 0.349
AAGGGGCCTTGGGTTCTAACCTGTTGCCT (site CGATCTACTCT) | 0.271
CATGCGACTTGGGTTCTAACCTGTTGCGT (site AGCATCCCTCA) | 0.234
CTGGCCACTTGGGTTCTAACCTGTTGCCT (site CGGGCCACTAG) | 0.0825
CCAGGTGCTTGGGTTCTAACCTGTTGCGG (site CCAGGTGCTCC) | 1.62
GCCATGTCTTGGGTTCTAACCTGTTGCCT (site GCCATGTCTAG) | 0.502
GCGGAATCTTGGGTTCTAACCTGTTGCCT (site TCGGAATCTAG) | 0.469
TCATTGACTTGGGTTCTAACCTGTTGCCT (site TTATTCACTAG) | 0.0739
GTTCCATCTTGGGTTCTAACCTGTTGCCT (site GTTCCATCTAG) | 0.601
CATTAGACTTGGGTTCTAACCTGTTGCCT (site AATTAGACTAG) | 0.356
GACGCGGCTTGGGTTCTAACCTGTTGCCT (site GACGCGGCTAG) | 0.184
GAAAGTCCTTGGGTTCTAACCTGTTGCCT (site GAAAGTCCTAG) | 0.917
ATGATATCTTGGGTTCTAACCTGTTGCCT (site AGGATATCTAG) | 0.181
